Data set [1] has as its system Vero cells. Kind of data set: Vero cell toxicity. The settings on record: Vero cells versus L. donovani.
The test system of data set [2] is Vero cells. The settings on record: cited from earlier work.
In data set [3] the test system is amastigotes of L. donovani (LD-1S/MHOM/SD/00-strain 1S). The following applies: cited from earlier work.
For data set [4], the system named is Leishmania promastigote and amastigote forms. The following applies: cited from earlier work.
Data set [5] concerns P. falciparum (K1, multidrug-resistant strain). The following applies: cited from earlier work.
Data set [6] concerns chloroquine-resistant strain (Indocrina W2) of Plasmodium falciparum. The settings on record: cited from earlier work.
In data set [7] the test system is recombinant Tulahuen clone C4 of T. cruzi. The settings on record: read-out: IC50 T. cruzi; cited from earlier work.
The subject of data set [8] is human breast cancer cell line MCF-7. The following applies: read-out: IC50 cytotoxic activity MCF-7; cited from earlier work.
The test system of a further data set is T. cruzi. The settings on record: cited from earlier work.
In data set [9] the test system is amastigotes of L. donovani (LD-1S/MHOM/SD/00-strain 1S). Kind of data set: In vitro antiparasitic assay: Leishmania. It counts as cell-based. The settings on record: read-out: typical IC50 response of L. donovani.
The subject of a further data set is African trypanosomiasis. The settings on record: mice; cited from earlier work.
For data set [10], the system named is Vero cells.
Where [11] appears, read: read-out: cytotoxicity to Vero cells IC50.
Where [12] appears, read: read-out: IC50 growth of Leishmania donovani in the amastigote form.
Where [13] appears, read: read-out: IC50 P. falciparum K1, K1, multidrug-resistant strain.
Where [14] appears, read: read-out: IC50 P. falciparum K1 strain, in vitro.

In brackets after ≈: the same amount, converted by molar mass. Read-outs that look alike come from different tables or passages of the source.

In the case of `O=C1C=C[C@]23Oc4ccc(O)c5c4[C@](CCC5=O)(Oc4cccc1c42)O3` [Compound 6, preussomerin EG^1], the “therapeutic window: times greater anti-leishmanial activity than cytotoxicity” value (from here on “therapeutic window”) in the data set on Vero cells [1] was found to be 12 times. The IC50 in the data set with Vero cells [2] (setting [11]) was 150 µM; in data set [3] (setting [12]) it was 120 nM.

`CC(C)C[C@@H](C(=O)N[C@H]1COC(=O)[C@H](Cc2ccccc2)N(C)C(=O)[C@H](CC(C)C)N(C)C(=O)[C@@H](NC(=O)[C@H](CC(C)C)N(C)C)COC(=O)[C@H](Cc2ccccc2)N(C)C(=O)[C@H](CC(C)C)N(C)C1=O)N(C)C` [IB-01212]: the leishmanicidal activity entry in data set [4] was “low micromolar concentrations”. For `CC[C@@H](O)[C@@H]1C[C@@H]2OC(=O)c3c(cc(OC)c(OC)c3O)[C@@H]2O1` [11-hydroxymonocerin], the half-maximal inhibitory concentration (IC50) in [5] (setting [13]) is 7.7 µM. In the case of `COc1cc2c3c(oc2c(C)c1O)C(=O)C(C)=CC3=O` [xylariaquinone A], the IC50 in data set [5] (setting [14]) was 6.68 µM. Take `O=C1CCC2(Oc3cccc4cccc(c34)O2)c2c(O)ccc(O)c21` [Compound 2, palmarumycin CP17]: the “therapeutic window” value in the data set with Vero cells [1] was determined as 130 times. The IC50 in the data set on Vero cells [2] (setting [11]) was 174 µM; in [3] (setting [12]), 1340 nM. For `CCC[C@H]1C[C@H]2OC(=O)c3c(cc(OC)c(OC)c3O)[C@H]2O1` [Monocerin], in data set [5] (setting [13]), the IC50 is 0.68 µM. Turning to `CCN(CC)CCCC(C)Nc1ccnc2cc(Cl)ccc12` (stereo not shown) [Chloroquine, reference compound], the IC50 in data set [6] (positive control) is 80 to 100 nM. `Oc1cccc2c1[C@@H](O)CCC21Oc2cccc3cccc(c23)O1` [Compound 5, CJ-12,371]: the “therapeutic window” value in the data set on Vero cells [1] was determined as 75 times. Moreover, the IC50 in the data set on Vero cells [2] (setting [11]) was 9 µM; in data set [3] (setting [12]) it was 8400 nM.

With `COc1c(CC(C)O)c2c3c(CC(C)O)c(OC)c(=O)c4c(O)cc5c(c6c(cc(O)c(c1=O)c62)OCO5)c43` (stereo not shown) [Compound 7, cercosporin], the IC50 in data set [3] (read-out: IC50 L. donovani) is 460 nM; in data set [7] it was 1080 nM; in data set [6] (read-out: IC50 P. falciparum), 1030 nM; in data set [8], 4.68 µM. Consider `COC1=CC(=O)C(Cl)=C(C)C1=O` [2-chloro-5-methoxy-3-methylcyclohexa-2,5-diene-1,4-dione], for which the IC50 in [5] (setting [14]) was 1.84 µM.

Regarding `COc1cccc2oc3c(Cl)c(O)c([C@H]4CCC[C@@H](C)O4)c(O)c3c(=O)c12` [Chaetoxanthone C], the “IC50 T. cruzi” value in the data set with T. cruzi was 1.5 µg/mL (≈ 3.84 µM). Turning to `C[C@@H]1[C@H](O)[C@@H](C)/C=C/C=C/C=C/C=C/C=C/C=C/C=C/[C@H](O[C@@H]2O[C@H](C)[C@@H](O)[C@H](N)[C@@H]2O)C[C@@H]2O[C@](O)(C[C@@H](O)C[C@@H](O)[C@H](O)CC[C@@H](O)C[C@@H](O)CC(=O)O[C@H]1C)C[C@H](O)[C@H]2C(=O)O` [Amphotericin B], the IC50 in [9] is 0.07 to 0.12 µg/mL (≈ 0.0758 to 0.13 µM). With `O=C1CCC2(Oc3cccc4cccc(c34)O2)c2cccc(O)c21` [Compound 1, Palmarumycin CP2], in the data set with Vero cells [1], the “therapeutic window” value is reported as 41 times. The values for the IC50 (in the data set with Vero cells [2] (setting [11]); in data set [3] (setting [12])) were 162 µM and 3930 nM, respectively.

Consider `C/C(=C\Cc1c(O)c(Cl)c(C)c(C=O)c1O)CC/C=C(\C)[C@@H]1CC(=O)C(C)(C)O1` [Ascofuranone], for which, in the data set with African trypanosomiasis, the “therapeutic effects for African trypanosomiasis” value was “good therapeutic effects”.

Regarding palmarumycin CP19 [Compound 4], in the data set with Vero cells [10], the “therapeutic window” value was determined as 18 times. Besides, the results for the IC50 (in the data set with Vero cells [2]; in data set [3] (setting [12])) were 140 µM and 11600 nM, respectively. palmarumycin CP18 [Compound 3]: the “therapeutic window” value in the data set with Vero cells [10] was 245 times. For the same compound, the 50% inhibitory concentration (IC50) was 152 µM in the data set with Vero cells [2] and 620 nM in data set [3] (setting [12]).

(Values after paper PMC3375117 (International Microbiology, 2011).)
